Measured values as given in ChEMBL document CHEMBL4393664, “2,4-Disubstituted quinazolines targeting breast cancer cells via EGFR-PI3K” (Eur J Med Chem, 2019).
Calls of active or inactive are those of the source. The calls are words filed in the database; no cut-off is given here.

Tests used:
MCF7 [1] = assay: Induction of apoptosis in human MCF7 cells assessed as necrotic cells at 2 uM after 48 hrs by Annexin-V-FITC/propidium iodide staining based flow cytometry (reference value: 1.57%); type: functional
MDA-MB-231 [2] = assay: Induction of apoptosis in human MDA-MB-231 cells after 48 hrs by Annexin-V-FITC/propidium iodide staining based flow cytometry; type: functional, cell-based
MCF7 [3] = assay: Cell cycle arrest in human MCF7 cells assessed as accumulation at S phase at 12 uM after 24 hrs by propidium iodide/RNase A staining-based flow cytometric analysis (reference value: 17.17%); type: functional
MDA-MB-231 [4] = assay: Induction of apoptosis in human MDA-MB-231 cells assessed as early apoptotic cells at 2 uM after 48 hrs by Annexin-V-FITC/propidium iodide staining based flow cytometry (reference value: 4.33%); type: functional
MDA-MB-231 [5] = assay: Effect on total PI3K protein level in human MDA-MB-231 cells up to 12 uM after 8 hrs by Western blot analysis; type: ADME, cell-based; settings: mda-mb-231, 8 h
MCF7 [6] = assay: Induction of apoptosis in human MCF7 cells assessed as early apoptotic cells at 2 uM after 48 hrs by Annexin-V-FITC/propidium iodide staining based flow cytometry (reference value: 3.05%); type: functional
MDA-MB-231 [7] = assay: Antiproliferative activity against human MDA-MB-231 cells assessed as reduction in cell viability after 24 to 72 hrs by MTT assay; type: functional, cell-based
MCF7 [8] = assay: Cell cycle arrest in human MCF7 cells assessed as accumulation at G2 phase at 3 uM after 24 hrs by propidium iodide/RNase A staining-based flow cytometric analysis (reference value: 30.62%); type: functional
MCF7 [9] = assay: Induction of apoptosis in human MCF7 cells assessed as viable cells at 6 uM after 48 hrs by Annexin-V-FITC/propidium iodide staining based flow cytometry (reference value: 91.1%); type: functional; settings: MCF7, 48 h, read-out: Activity
MCF7 [10] = assay: Antiproliferative activity against human MCF7 cells assessed as reduction in cell viability up to 32 uM by MTT assay; type: functional, cell-based; settings: TDE = time-dependent effect
MDA-MB-231 [11] = assay: Induction of apoptosis in human MDA-MB-231 cells assessed as increase in Bax expression levels at 3 to 12 uM after 48 hrs by Western blot analysis; type: functional, cell-based
MCF7 [12] = assay: Cell cycle arrest in human MCF7 cells assessed as accumulation at G1 phase at 3 uM after 24 hrs by propidium iodide/RNase A staining-based flow cytometric analysis (reference value: 52.21%); type: functional
[13] = target: Epidermal growth factor receptor (Homo sapiens) (UniProt P00533); assay: Inhibition of EGFR phosphorylation at Y992 residues in human MCF7 cells after 8 hrs by Western blot analysis; type: cell-based
Sequence of Epidermal growth factor receptor (Homo sapiens) (P00533 whole entry): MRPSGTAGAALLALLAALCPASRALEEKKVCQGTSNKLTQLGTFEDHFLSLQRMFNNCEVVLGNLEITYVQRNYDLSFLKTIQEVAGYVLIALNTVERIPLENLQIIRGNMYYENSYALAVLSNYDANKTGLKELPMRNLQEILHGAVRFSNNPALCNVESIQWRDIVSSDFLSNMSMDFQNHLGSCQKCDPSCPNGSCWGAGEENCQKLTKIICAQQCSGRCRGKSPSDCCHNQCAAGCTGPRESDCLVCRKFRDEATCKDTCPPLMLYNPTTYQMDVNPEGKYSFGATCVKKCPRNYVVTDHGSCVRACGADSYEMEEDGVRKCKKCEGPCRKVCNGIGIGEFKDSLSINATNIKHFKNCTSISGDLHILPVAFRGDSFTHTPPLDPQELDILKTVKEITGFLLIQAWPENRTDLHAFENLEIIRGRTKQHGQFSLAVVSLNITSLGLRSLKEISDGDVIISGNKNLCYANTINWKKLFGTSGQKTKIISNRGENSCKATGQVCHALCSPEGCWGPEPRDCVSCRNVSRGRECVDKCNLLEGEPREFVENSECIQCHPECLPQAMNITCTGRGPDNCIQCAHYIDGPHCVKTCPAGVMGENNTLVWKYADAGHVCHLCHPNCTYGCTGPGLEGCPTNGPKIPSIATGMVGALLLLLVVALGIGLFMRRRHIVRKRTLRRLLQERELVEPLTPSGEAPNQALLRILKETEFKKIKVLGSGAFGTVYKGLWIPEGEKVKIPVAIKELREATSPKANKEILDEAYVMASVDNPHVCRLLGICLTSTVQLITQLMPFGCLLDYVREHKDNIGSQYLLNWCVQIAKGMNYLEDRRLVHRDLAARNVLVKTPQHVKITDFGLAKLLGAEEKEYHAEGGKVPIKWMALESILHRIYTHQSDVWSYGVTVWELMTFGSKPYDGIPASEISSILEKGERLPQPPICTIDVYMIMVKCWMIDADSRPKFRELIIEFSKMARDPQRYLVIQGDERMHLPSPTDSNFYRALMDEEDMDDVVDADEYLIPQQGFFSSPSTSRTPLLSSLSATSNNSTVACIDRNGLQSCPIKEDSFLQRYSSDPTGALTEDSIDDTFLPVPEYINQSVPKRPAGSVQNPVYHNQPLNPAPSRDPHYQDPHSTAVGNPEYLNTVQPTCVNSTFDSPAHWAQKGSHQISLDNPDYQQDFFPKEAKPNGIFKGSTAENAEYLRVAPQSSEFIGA

MCF7 [14] = assay: Cell cycle arrest in human MCF7 cells assessed as accumulation at G1 phase at 12 uM after 24 hrs by propidium iodide/RNase A staining-based flow cytometric analysis (reference value: 52.21%); type: functional
MDA-MB-231 [15] = assay: Antiproliferative activity against human MDA-MB-231 cells assessed as reduction in cell viability up to 32 uM by MTT assay; type: functional, cell-based; settings: TDE = time-dependent effect
[16] = target: Epidermal growth factor receptor (Homo sapiens) (UniProt P00533); assay: Inhibition of EGFR in human MCF7 cells assessed as reduction in phosphorylated AKT expression after 8 hrs by Western blot analysis; type: cell-based
MDA-MB-231 [17] = assay: Effect on total AKT protein level in human MDA-MB-231 cells up to 12 uM after 8 hrs by Western blot analysis; type: ADME, cell-based; settings: mda-mb-231, 8 h
MCF7 [18] = assay: Induction of apoptosis in human MCF7 cells assessed as necrotic cells at 6 uM after 48 hrs by Annexin-V-FITC/propidium iodide staining based flow cytometry (reference value: 1.57%); type: functional
MDA-MB-231 [19] = assay: Induction of apoptosis in human MDA-MB-231 cells assessed as increase in ROS generation up to 8 uM after 48 hrs by DHE dye-based fluorescence microscopic analysis; type: functional, cell-based
MCF7 [20] = assay: Antimigratory activity against human MCF7 cells assessed as reduction in scratch healing after 72 hrs by microscopy based scratch wound assay; type: functional, cell-based
MCF7 [21] = assay: Induction of apoptosis in human MCF7 cells assessed as early apoptotic cells at 4 uM after 48 hrs by Annexin-V-FITC/propidium iodide staining based flow cytometry (reference value: 3.05%); type: functional
MDA-MB-231 [22] = assay: Cell cycle arrest in human MDA-MB-231 cells assessed as accumulation at G2 phase at 6 uM after 24 hrs by propidium iodide/RNase A staining-based flow cytometric analysis (reference value: 27.76%); type: functional
[23] = target: Epidermal growth factor receptor (Homo sapiens) (UniProt P00533); assay: Inhibition of EGFR phosphorylation at Y992 residues in human MDA-MB-231 cells after 8 hrs by Western blot analysis; type: cell-based
MCF7 [24] = assay: Cell cycle arrest in human MCF7 cells assessed as accumulation at S phase at 3 uM after 24 hrs by propidium iodide/RNase A staining-based flow cytometric analysis (reference value: 17.17%); type: functional
MCF7 [25] = assay: Induction of apoptosis in human MCF7 cells assessed as increase in ROS generation up to 8 uM after 48 hrs by DHE dye-based fluorescence microscopic analysis; type: functional, cell-based
MCF7 [26] = assay: Induction of apoptosis in human MCF7 cells assessed as increase in P53 expression at 3 to 12 uM after 48 hrs by Western blot analysis; type: functional, cell-based
MCF7 [27] = assay: Induction of apoptosis in human MCF7 cells assessed as increase in Bax expression levels at 3 to 12 uM after 48 hrs by Western blot analysis; type: functional, cell-based
MDA-MB-231 [28] = assay: Induction of apoptosis in human MDA-MB-231 cells assessed as early apoptotic cells at 4 uM after 48 hrs by Annexin-V-FITC/propidium iodide staining based flow cytometry (reference value: 4.33%); type: functional
MCF7 [29] = assay: Induction of apoptosis in human MCF7 cells assessed as late apoptotic cells at 4uM after 48 hrs by Annexin-V-FITC/propidium iodide staining based flow cytometry (reference value: 4.28%); type: functional
MDA-MB-231 [30] = assay: Cell cycle arrest in human MDA-MB-231 cells assessed as accumulation at G2 phase at 3 uM after 24 hrs by propidium iodide/RNase A staining-based flow cytometric analysis (reference value: 27.76%); type: functional
MDA-MB-231 [31] = assay: Antimigratory activity against human MDA-MB-231 cells assessed as reduction in scratch healing after 72 hrs by microscopy based scratch wound assay; type: functional, cell-based
MCF7 [32] = assay: Cell cycle arrest in human MCF7 cells assessed as accumulation at G2 phase at 6 uM after 24 hrs by propidium iodide/RNase A staining-based flow cytometric analysis (reference value: 30.62%); type: functional
MDA-MB-231 [33] = assay: Induction of apoptosis in human MDA-MB-231 cells assessed as viable cells at 2 uM after 48 hrs by Annexin-V-FITC/propidium iodide staining based flow cytometry (reference value: 92.1%); type: functional; settings: MDA-MB-231, 48 h, read-out: Activity
MDA-MB-231 [34] = assay: Cell cycle arrest in human MDA-MB-231 cells assessed as accumulation at G1 phase at 3 uM after 24 hrs by propidium iodide/RNase A staining-based flow cytometric analysis (reference value: 49.17%); type: functional
MCF7 [35] = assay: Induction of apoptosis in human MCF7 cells assessed as early apoptotic cells at 6 uM after 48 hrs by Annexin-V-FITC/propidium iodide staining based flow cytometry (reference value: 3.05%); type: functional
MCF7 [36] = assay: Cell cycle arrest in human MCF7 cells assessed as accumulation at S phase at 6 uM after 24 hrs by propidium iodide/RNase A staining-based flow cytometric analysis (reference value: 17.17%); type: functional

inhibition [13]: Dose-dependent effect | inhibition [16]: Dose-dependent effect | inhibition [23]: Dose-dependent effect
Compound: FC(F)(F)c1ccc(CSc2nc(Nc3ccc(C(F)(F)F)cc3)c3ccccc3n2)cc1
Activity (MCF7 [1]): 3.28% | Activity (MDA-MB-231 [2]): Dose-dependent effect | Activity (MCF7 [3]): 10.65% | Activity (MDA-MB-231 [4]): 6.56% | Activity (MDA-MB-231 [5]): Non-Toxic | Activity (MCF7 [6]): 11.4% | Activity (MDA-MB-231 [7]): Dose-dependent effect | Activity (MCF7 [8]): 20.38% | viability at 6 µM (MCF7 [9]): 70.5% | Activity (MCF7 [10]): Tde | Activity (MDA-MB-231 [11]): Active | Activity (MCF7 [12]): 59.18% | Activity (MCF7 [14]): 75.03% | Activity (MDA-MB-231 [15]): Tde | Activity (MDA-MB-231 [17]): Non-Toxic | Activity (MCF7 [18]): 1.8% | Activity (MDA-MB-231 [19]): Active | Activity (MCF7 [20]): Dose-dependent effect | Activity (MCF7 [21]): 15% | Activity (MDA-MB-231 [22]): 21.98% | Activity (MCF7 [24]): 20.44% | Activity (MCF7 [25]): Active | Activity (MCF7 [26]): Active | Activity (MCF7 [27]): Active | Activity (MDA-MB-231 [28]): 10.6% | Activity (MCF7 [29]): 7.49% | Activity (MDA-MB-231 [30]): 28.04% | Activity (MDA-MB-231 [31]): Dose-dependent effect | Activity (MCF7 [32]): 15.43% | viability at 2 µM (MDA-MB-231 [33]): 82.9% | Activity (MDA-MB-231 [34]): 53% | Activity (MCF7 [35]): 17.1% | Activity (MCF7 [36]): 19.52%
